Values belong to the compound of their own block, whether it stands above or below them.
Assays:
MDA-MB-231 = assay: Antiproliferative activity against human MDA-MB-231 cells measured after 96 hrs by CellTiter 96 Aqueous One Solution Reagent based assay; format: functional, cell-based; conditions: MDA-MB-231, 96 h
MDA-MB-468 = assay: Antiproliferative activity against human MDA-MB-468 cells measured after 96 hrs by CellTiter 96 Aqueous One Solution Reagent based assay; format: functional, cell-based; conditions: MDA-MB-468, 96 h
K562 [1] = assay: Antiproliferative activity against human K562 cells measured after 96 hrs by CellTiter 96 Aqueous One Solution Reagent based assay; format: functional, cell-based; conditions: K562, 96 h
HeLa = assay: Antiproliferative activity against human HeLa cells measured after 96 hrs by CellTiter 96 Aqueous One Solution Reagent based assay; format: functional, cell-based
[2] = AUC in CD-1 mouse at 10 mg/kg, po administered as single dose via gavage by LC-MS/MS analysis; format: ADME, organism-based; design: dose 10 mg/kg; conditions: in vivo
K562 [3] = assay: Antiproliferative activity against human K562 cells measured after 96 hrs by MTT assay; format: functional, cell-based; conditions: K562, 96 h
[4] = Oral bioavailability in CD-1 mouse at 10 mg/kg administered as single dose via gavage by LC-MS/MS analysis; format: ADME, organism-based; conditions: in vivo
[5] = Tmax in CD-1 mouse at 10 mg/kg, po administered as single dose via gavage by LC-MS/MS analysis; format: ADME, organism-based; conditions: in vivo
[6] = Cmax in CD-1 mouse at 10 mg/kg, po administered as single dose via gavage by LC-MS/MS analysis; format: ADME, organism-based; design: route oral, dose 10 mg/kg; conditions: in vivo
[7] = Half life in CD-1 mouse at 10 mg/kg, po administered as single dose via gavage by LC-MS/MS analysis; format: ADME, organism-based; conditions: in vivo

IC50 (MDA-MB-231): 0.0945 µM | IC50 (MDA-MB-468): 0.0539 µM | IC50 (K562 [1]): 0.0592 µM | IC50 (HeLa): 0.0328 µM | AUC [2]: 13.9 µM·h
SMILES: Cc1cc(Sc2cnc(OCCN(C)C)cn2)cc(C)c1-c1csc(NC(=O)c2ccncc2)n1

IC50 (K562 [3]): 0.79 µM
SMILES: Cc1cc(C)c(-c2csc(NC(=O)/C=C/c3ccc(C(C)(C)C)cc3)n2)c(C)c1

AUC [2]: 50.9 µM·h | bioavailability [4]: 84%
SMILES: COCCOc1cnc(Sc2cc(C)c(-c3csc(NC(=O)c4ccncc4)n3)c(C)c2)cn1.Cl

AUC [2]: 47.5 µM·h | bioavailability [4]: 58.5% | Tmax [5]: 1.5 h | Cmax [6]: 8.44 µM | half-life [7]: 3.38 h
SMILES: COCCOc1cnc(Sc2cc(C)c(-c3csc(NC(=O)c4ccncc4)n3)c(C)c2)cn1.CS(=O)(=O)O
